Measured values published in patent US9700637B2, “Reaction-based fluorescent probes for detecting zinc” (Massachusetts Institute of Technology, priority 2013, dated 2017).

Assays:
HeLa cells = experiment: Live cell fluorescence imaging: localization, co-localization and uptake; format: cell-based; conditions: fluorescence microscopy, live HeLa cells (Table 1)
Procedure: FIG. 6 depicts live cell imaging of HeLa cells. 500 nM mitotracker Red was bath-applied along with 1 μM DA-ZP1-TPP for 30 min at 37° C. and 5% CO2. After exposure to 25 μM 1:2 zinc:pyrithione, fluorescent images were acquired and the co-localization of the two sensors was assessed. The calculated Pearson's correlation coefficient (r) was r=0.581±0.097 (n=9), which represents the average of 9 ROIs over three independent plates.
FIG. 14 depicts live cell imaging of HeLa cells. 1 μM Lysotracker Red was bath-applied along with 2 μM ZP1-TPP. The calculated Pearson's correlation coefficient (r) was r=0.45±0.15, which represents the average of 9 ROIs over three independent plates.
FIG. 24 depicts fluorescence images of live HeLa cells. HeLa cells were pretreated with a 1 μM solution of DA-ZP1-TPP in dye- and serum-free medium for 30 min (37° C., 5% CO2). […] The signal from MitoTracker Red (c) correlates well with the signal from the zinc-bound sensor (d). Pearson's r=0.64±0.1 (n=18).
FIG. 27 depicts deconvoluted fluorescence microscopy images of live HeLa cells pretreated with ZP1-R9 (5 μM) or DA-ZP1-R9 (2.5 μM) and the indicated organelle stain. Top, ZP1-R9: (a) Differential interference contrast (DIC) image, (b) signal from ZP1-R9, (c) signal from LysoTracker Red, (d) overlay of (b) and (c). Pearson's r=0.42±0.16 (n=8). Bottom, DA-ZP1-R9: (e) DIC, (f) signal from DA-ZP1-R9 after treatment with 25 μM ZnPT, (g) signal from Hoechst 33258, (h) overlay of (f) and (g). Scale bar=25 μm.
FIG. 29 depicts deconvoluted fluorescence microscopy images of live HeLa cells pretreated with 1 μM DA-ZP1-R9 and 100 nM Dextran Red. (a) Differential interference contrast (DIC), (b) signal from DA-ZP1-R9 after addition of 25 μM ZnPT (c) signal from Dextran Red, (d) overlay of (b) and (c). Pearson's r=0.55±0.12 (n=11). Scale bar=25 μm.
FIG. 31 depicts deconvoluted fluorescence microscopy images of ZP1-(Fxr)3 and DA-ZP1-r(Fxr)3 in live HeLa cells. Top, cells pretreated with medium containing 2.5 μM of ZP1-(Fxr)3: (a) Differential interference contrast (DIC) image, (b) signal from ZP1-(Fxr)3, (c) signal from Dextran Red, (d) overlay of (b) and (c). Pearson's r=0.71±0.07. Bottom, cells pretreated with 1 μM DA-ZP1-r(Fxr)3: (e) DIC, (f) signal from DA-ZP1-r(Fx)3 after treatment with 25 μM ZnPT, (g) signal from MitoTracker Red, (h) overlay of (f) and (g). Pearson's r=0.41±0.09. Scale bar=25 μm.
FIG. 33 depicts deconvoluted fluorescence microscopy images of DCF-r(Fxr)3 and DA-DCF-r(Fxr)3 in live HeLa cells. Top, cells pretreated with 5 μM DCF-r(Fxr)3 and 500 nM MitoTracker Red for 30 min. (a) differential contrast image (DIC), (b) signal from DCF-r(Fxr)3, (c) signal from MitoTracker Red. Bottom, cells pretreated with 5 μM DA-DCF-r(Fxr)3 and 500 nM MitoTracker Red for 30 min. (d) DIC, (e) signal from DCF-r(Fxr)3, (f) signal from MitoTracker Red. The global Pearson's r=0.57±0.16 (n=37). Cells with high levels of DA-DCF-r(Fxr)3 (e, red outline) have a higher Pearson's r=0.83±0.08 (n=10). Scale bar=25 μm.
We used HeLa cells as a model system to evaluate the ability of DA-ZP1-TPP to target mitochondria and respond to changes in intracellular zinc levels. […] Over a two-hour period, the fluorescence intensity from the sensor remained constant, implying that the acetylated form is stable against intracellular esterases (FIG. 24e). […] Addition of 100 μM TPEN attenuated the fluorescence signal by ˜2.4-fold (FIG. 24f). […]

[1] = Charge of predominate species in solution at physiological pH; format: physicochemical; conditions: physiological pH = 7.4
[2] = Octanol/aqueous buffer partition coefficient (modified shake-flask); format: physicochemical; conditions: octanol/water, buffered at pH 7 with 10 mM Tris
Description: To understand better the limitations of TPP in directing fluorophores to mitochondria, we prepared two additional TPP-derivatives, one based on 6-carboxyfluorescein (FL-TPP) and one on coumarin 343 (C343-TPP). […] To test this hypothesis, we conducted live cell fluorescence imaging experiments with FL-TPP. […] Not only did FL-TPP fail to accumulate in mitochondria, it was cell-impermeable under our imaging conditions. In contrast, the cationic C343-TPP strongly colocalized with MitoTracker Red in live HeLa cells (Pearson's r=0.72±0.02). To quantify the effect of hydrophobicity in mitochondrial-targeting, we measured the octanol/aqueous buffer partition coefficient (log P) for our TPP constructs and two MitoTracker dyes. We then tabulated the log P, charge of the predominate species in solution at physiological pH, and cellular localization for each dye (Table 1). […] Along with cationic charge, a minimum level of lipophilicity must be reached in order to evade endo/lysosomal sequestration and enable effective mitochondrial targeting.

[3] = Deacetylation kinetics monitored by UV-vis absorbance (metal-mediated and uncatalyzed hydrolysis); format: physicochemical; conditions: analogous conditions, EDTA or ZnCl2
Procedure: (§1) FIG. 23 depicts kinetic traces for the deacetylation of DA-ZP1-TPP. The half-life for deacetylation of a 2.75 μM solution of DA-ZP1-TPP, at 37° C. in 50 mM PIPES buffer (pH 7) and 100 mM KCl, was measured in the presence of 125 μM ZnCl2 (+Zn), 250 μM EDTA (−Zn), or 1.25 units of porcine liver esterase (Esterase). The change in absorbance at 520 nm (EDTA and esterase) or 510 nm (ZnCl2) was used to monitor the reaction.
FIG. 26 depicts in vitro characterization of DA-ZP1-A3. (a) UV-vis and (b) fluorescence spectra of a 5 μM solution of DA-ZP1-A3 in buffer (50 mM PIPES, 100 mM KCl; pH 7). Spectra were acquired initially, upon addition of 100 μM ZnCl2, and again after addition of 200 μM EDTA. (c) Time-dependent change in the normalized absorbance of a ca. 5 μM solution DA-ZP1-A3 at 37° C. in buffer (50 mM PIPES, 100 mM KCl; pH 7) in the presence of 100 μM ZnCl2 (λabs=510 nm) or EDTA (λabs=520 nm). (d) Integrated fluorescence intensity of a 1 μM solution of ZP1-A3 (circles) or DA-ZP1-A3 (squares) as a function of pH. […]
DA-ZP1-TPP has a zinc-induced fluorescence response and is relatively stable to uncatalyzed hydrolysis and esterase activity. […] Other late 3d-block transition metal ions, such as Co(II) and Cu(II), can coordinate to DA-ZP1-TPP but are generally not available in appreciable chelatable quantities within the cell. […]

porcine liver esterase = experiment: Deacetylation by porcine liver esterase (UV-vis absorbance); format: in vitro ADME; conditions: analogous conditions, porcine liver esterase
Procedure: as §1
DA-ZP1-TPP has a zinc-induced fluorescence response and is relatively stable to uncatalyzed hydrolysis and esterase activity. […] Other late 3d-block transition metal ions, such as Co(II) and Cu(II), can coordinate to DA-ZP1-TPP but are generally not available in appreciable chelatable quantities within the cell. In addition to monitoring selectivity in the fluorescence response, we used UV-vis spectroscopy to investigate the rate and zinc-specificity of metal-mediated ester hydrolysis. DA-ZP1-TPP deacetylation results in opening of the lactone ring and restoration of conjugation across the xanthene ring. By monitoring the absorbance of the xanthene it system, we could interrogate deacetylation kinetics in a manner that is independent of the fluorescence response. […] To determine whether ester hydrolysis depends on the metal-binding core of DA-ZP1-TPP, we measured the deacetylation kinetics of fluorescein diacetate (DA-FL) under analogous conditions. […]

| Compound | Localization (HeLa cells) | Charge of the predominate species in solution [1] | log P [2] | stability to hydrolysis and zinc-mediated deacetylation [3] | response to esterase (deacetylation) (porcine liver esterase) | logP ([2]; octanol/aqueous buffer) |
| --- | --- | --- | --- | --- | --- | --- |
| O=C(NCC[P+](c1ccccc1)(c1ccccc1)c1ccccc1)c1cc2cc3c4c(c2oc1=O)CCCN4CCC3 [C343-TPP] | Mitochondria | +1 | 0.72 ± 0.05 | – | – | – |
| CC(=O)Oc1ccc2c(c1)Oc1cc(OC(C)=O)ccc1C21OC(=O)c2ccccc21 [DA-FL, fluorescein diacetate, reference compound] | – | – | – | relatively stable to hydrolysis and zinc-mediated deacetylation | responds rapidly to esterase | – |
| CN1/C(=C/C=C/c2n(Cc3ccc(CCl)cc3)c3cc(Cl)c(Cl)cc3[n+]2Cc2ccc(CCl)cc2)Oc2ccccc21 [Mitotracker Green, reference compound] | Mitochondria | +1 | – | – | – | 0.56 ± 0.02 |
| ClCc1ccc(C2=c3cc4c5c(c3Oc3c2cc2c6c3CCCN6CCC2)CCC[N+]=5CCC4)cc1.[Cl-] [Mitotracker Red, reference compound] | Mitochondria | +1 | 1.15 ± 0.04 | – | – | – |
